pIC50: −log10 of the molar value. Like-named read-outs stand apart in the source and are kept apart here.
Experiments:
Format in all cases: biochemical
TMPRSS2 = TMPRSS2 (Homo sapiens, UniProt O15393); test: Fluorogenic kinetic enzyme inhibitor assay, TMPRSS2; set-up: purchased Cusabio Technology CSB-YP023924HU
hepsin = molecular target: T1, hepsin (Homo sapiens, UniProt P05981); test: Fluorogenic kinetic enzyme inhibitor assay, hepsin
T1 construct: purchased R&D Systems 4776-SE-010

matriptase = molecular target: T2, matriptase (Homo sapiens, UniProt Q9Y5Y6); test: Fluorogenic kinetic enzyme inhibitor assay, matriptase
T2 construct: purchased R&D Systems 3946-SEB-010
T2 sequence (Q9Y5Y6 615-855 limits assumed): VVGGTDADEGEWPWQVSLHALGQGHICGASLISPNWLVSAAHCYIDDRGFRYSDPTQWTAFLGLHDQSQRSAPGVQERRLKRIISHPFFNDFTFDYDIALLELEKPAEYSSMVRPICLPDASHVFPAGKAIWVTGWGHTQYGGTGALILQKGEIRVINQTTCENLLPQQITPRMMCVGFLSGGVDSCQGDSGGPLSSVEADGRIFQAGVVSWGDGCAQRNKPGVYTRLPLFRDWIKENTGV

Chain of TMPRSS2 (O15393 106-492 limits assumed): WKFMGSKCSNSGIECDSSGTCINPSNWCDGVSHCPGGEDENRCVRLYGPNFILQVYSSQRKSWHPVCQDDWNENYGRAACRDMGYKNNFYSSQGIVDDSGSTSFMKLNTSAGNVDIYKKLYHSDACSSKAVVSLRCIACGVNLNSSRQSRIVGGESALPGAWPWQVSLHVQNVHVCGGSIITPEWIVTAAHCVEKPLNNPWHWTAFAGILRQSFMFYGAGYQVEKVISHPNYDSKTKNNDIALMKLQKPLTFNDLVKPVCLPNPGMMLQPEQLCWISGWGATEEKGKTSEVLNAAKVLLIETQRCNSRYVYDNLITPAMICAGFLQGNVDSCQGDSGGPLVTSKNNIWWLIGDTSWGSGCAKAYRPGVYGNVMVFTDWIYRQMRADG
T1 sequence (P05981 163-417 limits assumed): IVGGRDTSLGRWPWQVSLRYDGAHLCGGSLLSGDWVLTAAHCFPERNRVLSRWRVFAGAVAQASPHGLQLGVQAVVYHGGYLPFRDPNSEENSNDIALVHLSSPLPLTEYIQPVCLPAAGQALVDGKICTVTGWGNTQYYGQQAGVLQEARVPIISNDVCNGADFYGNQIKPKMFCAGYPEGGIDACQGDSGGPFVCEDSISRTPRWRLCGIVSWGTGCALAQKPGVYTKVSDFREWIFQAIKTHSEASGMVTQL
T1 sequence (P05981 1-162 partner limits assumed): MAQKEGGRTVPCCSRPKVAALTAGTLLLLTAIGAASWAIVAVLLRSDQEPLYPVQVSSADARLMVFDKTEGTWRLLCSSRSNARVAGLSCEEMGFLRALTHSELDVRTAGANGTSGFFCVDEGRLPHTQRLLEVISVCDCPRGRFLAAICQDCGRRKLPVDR

Compound	pIC50 (TMPRSS2; read-out: TMPRSS2 IC50)	pIC50 (hepsin; read-out: Hepsin IC50)	pIC50 (matriptase; read-out: Matriptase IC50)	pIC50 (matriptase)	pIC50 (TMPRSS2)	pIC50 (hepsin)
CC(=O)N[C@@H](CO)C(=O)NCc1ccc(CC(=O)N[C@@H](CC(C)C)C(=O)N[C@@H](CCCNC(=N)N)C(=O)c2nc3ccccc3s2)cc1 [AJS3200, N-[(S)-1-[(1,3-benzothiazol-2-yl)carbonyl]-4-guanidinobutyl](S)-2-{[(p-{[(S)-2-acetylamino-3-hydroxypropionylamino]methyl}phenyl)methyl]carbonylamino}-4-methylvaleramide]	9.42	8.55	8.02	–	–	–
CC(=O)N[C@@H](CO)C(=O)NCc1ccc(C(=O)N[C@@H](CC(C)C)C(=O)N[C@@H](CCCNC(=N)N)C(=O)c2nc3ccccc3s2)cc1 [AJS4016]	10.17	7.66	7.99	–	–	–
CC(=O)N1C(C(=O)N[C@@H](CCC(=O)OC2CCCCC2)C(=O)N[C@@H](Cc2ccc(F)cc2)C(=O)N[C@@H](CCCNC(=N)N)C(=O)c2nc3ccccc3s2)CC2CCCCC21 (stereo partly drawn) [MF1064, cyclohexyl (S)-4-[(2R)-1-acetyloctahydro-2H-indol-2-ylcarbonylamino]-4-[N-(S)-2-(p-fluorophenyl)-1-[N-(S)-1-[(1,3-benzothiazol-2-yl)carbonyl]-4-guanidinobutylcarbamoyl]ethylcarbamoyl]butyrate]	11.40	9.08	–	8.91	–	–
CC(=O)N1c2ccccc2C[C@H]1C(=O)N[C@@H](CCC(=O)OC1CCCCC1)C(=O)N[C@@H](Cc1ccc(F)cc1)C(=O)N[C@@H](CCCNC(=N)N)C(=O)c1nc2ccccc2s1 [MF1065, cyclohexyl (S)-4-[(S)-1-acetyl-2-indolinylcarbonylamino]-4-[N-(S)-2-(p-fluorophenyl)-1-[N-(S)-1-[(1,3-benzothiazol-2-yl)carbonyl]-4-guanidinobutylcarbamoyl]ethylcarbamoyl]butyrate]	–	–	–	8.46	10.21	8.75
C=CCOC(=O)CC[C@H](NC(=O)[C@@H]1CC2CCCCC2N1C(C)=O)C(=O)N[C@@H](Cc1ccc(F)cc1)C(=O)N[C@@H](CCCNC(=N)N)C(=O)c1nc2ccccc2s1 (stereo partly drawn) [MF1068, allyl (S)-4-[(2S)-1-acetyloctahydro-2H-indol-2-ylcarbonylamino]-4-[N-(S)-2-(p-fluorophenyl)-1-[N-(S)-1-[(1,3-benzothiazol-2-yl)carbonyl]-4-guanidinobutylcarbamoyl]ethylcarbamoyl]butyrate]	10.08	9.51	–	9.43	–	–
N=C(N)NCCC[C@H](NC(=O)[C@H](CCCCNC(=O)OCc1ccccc1Cl)NC(=O)OCC1c2ccccc2-c2ccccc21)C(=O)c1nc2ccccc2s1 [MF1151, (S)-5-{[(o-chlorophenyl)methyl] (oxycarbonylamino)}-1-[N-(S)-1-[(1,3-benzothiazol-2-yl)carbonyl]-4-guanidinobutylcarbamoyl] pentyl (9H-fluoren-9-yl)methanecarbamate]	6.55	–	7.95	–	–	–
N=C(N)NCCC[C@H](NC(=O)[C@@H](NC(=O)OCc1ccccc1)C1Cc2ccccc2C1)C(=O)c1nc2ccccc2s1 [MF2008, (S)-(2-indanyl)[N-(S)-1-[(1,3-benzothiazol-2-yl)carbonyl]-4-guanidinobutylcarbamoyl] methyl-phenylmethanecarbamate]	9.52	–	7.12	–	–	–
CC(C)(C)C[C@H](NC(=O)OCc1ccccc1)C(=O)N[C@@H](CCCNC(=N)N)C(=O)c1nc2ccccc2s1 [MF2009, (S)-3,3-dimethyl-1-[N-(S)-1-[(1,3-benzothiazol-2-yl)carbonyl]-4-guanidinobutylcarbamoyl] butyl-phenylmethanecarbamate]	6.21	–	< 4.70	–	–	–
N=C(N)NCCC[C@H](NC(=O)[C@H](Cc1ccc2ccccc2c1)NC(=O)OCC1c2ccccc2-c2ccccc21)C(=O)c1nc2ccccc2s1 [MF2012, (S)-2-(2-naphthyl)-1-[N-(S)-1-[(1,3-benzothiazol-2-yl)carbonyl]-4-guanidinobutylcarbamoyl] ethyl (9H-fluoren-9-yl)methanecarbamate]	6.73	–	< 4.70	–	–	–

From US20250171495A1, “MUTLI-TARGETED SERINE PROTEASE INHIBITORS FOR TREATMENT OF CANCER AND VIRAL INFECTION” (Washington University, priority 2023, published 2025)
